Source: patent US20250228239A1, “MOLECULES HAVING PESTICIDAL UTILITY, AND INTERMEDIATES, COMPOSITIONS, AND PROCESSES, RELATED THERETO” (priority 2024, published 2025)

Experiments:
[1] = tested on: Cabbage Looper (Trichoplusia ni, TRIPNI); test: Bioassays on Cabbage Looper (CL), 128-well diet tray assay; type: in vivo; conditions: Trichoplusia ni; Cabbage Looper; rating class; read-out: CL
In short: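 Test molecule was dissolved in 90:10 acetone-water, applied to artificial diet at 50 μg/cm^2 and allowed to dry. Second-instar larvae were then added, one to five per well, and trays held at 25° C for five to seven days before mortality was scored and averaged.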

[2] = tested on: Beet Armyworm (Spodoptera exigua, LAPHEG); test: Bioassays on Beet Armyworm (BAW), 128-well diet tray assay; type: in vivo; conditions: Spodoptera exigua; Beet Armyworm; rating class; read-out: BAW
In short: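 Larvae at second instar are exposed on dried, compound-treated diet (50 μg/cm^2, delivered in 90:10 acetone-water) in eight replicate wells. After five to seven days at 25° C., 14:10 light-dark, percent mortality in each well is scored and the eight wells averaged.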

SMILES	pest or weed control at 50 µg/cm2 [1]	pest or weed control at 50 µg/cm2 [2]
O=C(Nc1c(F)ccc(NC(=O)c2cc(NC(=O)[C@H]3[C@H](c4cc(Cl)c(Cl)c(Cl)c4)C3(Cl)Cl)ccc2Cl)c1F)c1ccco1 [F1648, N-(3-(2-Chloro-5-((1R,3R)-2,2-dichloro-3-(3,4,5-trichlorophenyl)cyclopropane-1-carboxamido)benzamido)-2,6-difluorophenyl)furan-2-carboxamide]	50 to 100%	50 to 100%
O=C1CC(C(=O)Nc2c(F)ccc(NC(=O)c3cc(NC(=O)[C@H]4[C@H](c5cc(Cl)c(Cl)c(Cl)c5)C4(Cl)Cl)ccc3Cl)c2F)C1 [F1649, 2-Chloro-5-((1R,3R)-2,2-dichloro-3-(3,4,5-trichlorophenyl)cyclopropane-1-carboxamido)-N-(2,4-difluoro-3-(3-oxocyclobutane-1-carboxamido)phenyl)benzamide]	50 to 100%	50 to 100%
N#CCC(=O)Nc1c(F)ccc(NC(=O)c2cc(NC(=O)[C@H]3[C@H](c4cc(Cl)c(Cl)c(Cl)c4)C3(Cl)Cl)ccc2Cl)c1F [F1650, 2-Chloro-N-(3-(2-cyanoacetamido)-2,4-difluorophenyl)-5-((1R,3R)-2,2-dichloro-3-(3,4,5-trichlorophenyl)cyclopropane-1-carboxamido)benzamide]	50 to 100%	50 to 100%
O=C(Nc1ccc(F)c(NC(=O)C(F)(F)C(F)(F)C(F)(F)F)c1F)c1cc(NC(=O)[C@H]2[C@H](c3cc(Cl)c(Cl)c(Cl)c3)C2(Cl)Cl)ccc1Cl [F1652, 2-Chloro-5-((1R,3R)-2,2-dichloro-3-(3,4,5-trichlorophenyl)cyclopropane-1-carboxamido)-N-(2,4-difluoro-3-(2,2,3,3,4,4,4-heptafluorobutanamido)phenyl)benzamide]	50 to 100%	50 to 100%
CCCC(=O)Nc1c(F)ccc(NC(=O)c2cc(NC(=O)[C@H]3[C@H](c4ccc(Cl)c(C(F)(F)F)c4)C3(Cl)Cl)ccc2Cl)c1F [F1659, N-(3-Butyramido-2,4-difluorophenyl)-2-chloro-5-((1R,3R)-2,2-dichloro-3-(4-chloro-3-(trifluoromethyl)phenyl)cyclopropane-1-carboxamido)benzamide]	50 to 100%	50 to 100%
O=C(Nc1ccc(F)c(NC(=O)C2(C(F)(F)F)CC2)c1F)c1cc(NC(=O)[C@H]2[C@H](c3ccc(Cl)c(Cl)c3)C2(Cl)Cl)ccc1Cl [F1662, 2-Chloro-5-((1R,3R)-2,2-dichloro-3-(3,4-dichlorophenyl)cyclopropane-1-carboxamido)-N-(2,4-difluoro-3-(1-(trifluoromethyl)cyclopropane-1-carboxamido)phenyl)benzamide]	50 to 100%	50 to 100%
O=C(Nc1ccc(F)c(NC(=O)[C@H]2CCCN2)c1F)c1cc(NC(=O)[C@H]2[C@H](c3ccc(Cl)c(Cl)c3)C2(Cl)Cl)ccc1Cl [F1663, (R)—N-(3-(2-Chloro-5-((1R,3R)-2,2-dichloro-3-(3,4-dichlorophenyl)cyclopropane-1-carboxamido)benzamido)-2,6-difluorophenyl)pyrrolidine-2-carboxamide]	50 to 100%	50 to 100%
O=C(Nc1ccc(F)c(NC(=O)[C@@H]2CCCN2)c1F)c1cc(NC(=O)[C@H]2[C@H](c3ccc(Cl)c(Cl)c3)C2(Cl)Cl)ccc1Cl [F1664, (S)—N-(3-(2-chloro-5-((1R,3R)-2,2-dichloro-3-(3,4-dichlorophenyl)cyclopropane-1-carboxamido)benzamido)-2,6-difluorophenyl)pyrrolidine-2-carboxamide]	50 to 100%	50 to 100%
CC(C)(C)OC(=O)N(C(=O)OC(C)(C)C)c1c(F)ccc(NC(=O)c2cc(NC(=O)[C@H]3[C@H](c4cccc(C(F)(F)F)c4)C3(Cl)Cl)ccc2Cl)c1F [F1665, tert-Butyl N-tert-butoxycarbonyl-N-[3-[[2-chloro-5-[[(1R,3R)-2,2-dichloro-3-[3-(trifluoromethyl)phenyl]cyclopropanecarbonyl]amino]benzoyl]amino]-2,6-difluoro-phenyl]carbamate]	50 to 100%	50 to 100%
O=C(Nc1c(F)ccc(NC(=O)c2cc(NC(=O)[C@H]3[C@H](c4ccc(Cl)c(Cl)c4)C3(Cl)Cl)ccc2Cl)c1F)c1ccns1 [F1672]	50 to 100%	50 to 100%
Cc1c(F)c(N)cc(NC(=O)c2cc(NC(=O)[C@H]3[C@H](c4ccc(F)c(C(F)(F)F)c4)C3(Cl)Cl)ccc2Cl)c1F [F1674, N-(5-Amino-2,4-difluoro-3-methylphenyl)-2-chloro-5-((1R,3R)-2,2-dichloro-3-(4-fluoro-3-(trifluoromethyl)phenyl)cyclopropane-1-carboxamido)benzamide]	50 to 100%	50 to 100%
O=C(Nc1ccc(F)c(NC(=O)C2CCCO2)c1F)c1cc(NC(=O)[C@H]2[C@H](c3cccc(C(F)(F)F)c3)C2(Cl)Cl)ccc1Cl (stereo partly drawn) [F1676, N-(3-(2-Chloro-5-((1R,3R)-2,2-dichloro-3-(3-(trifluoromethyl)phenyl)cyclopropane-1-carboxamido)benzamido)-2,6-difluorophenyl)tetrahydrofuran-2-carboxamide]	50 to 100%	50 to 100%
O=C(Nc1ccc(F)c(NC(=O)C(F)(F)C(F)F)c1F)c1cc(NC(=O)[C@H]2[C@H](c3cccc(C(F)(F)F)c3)C2(Cl)Cl)ccc1Cl [F1677, 2-Chloro-5-((1R,3R)-2,2-dichloro-3-(3-(trifluoromethyl)phenyl)cyclopropane-1-carboxamido)-N-(2,4-difluoro-3-(2,2,3,3-tetrafluoropropanamido)phenyl)benzamide]	50 to 100%	50 to 100%
CC(C)(C)OC(=O)N(C(=O)OC(C)(C)C)c1c(F)ccc(NC(=O)c2cc(NC(=O)[C@H]3[C@H](c4cc(F)cc(C(F)(F)F)c4)C3(Cl)Cl)ccc2Cl)c1F [F1681, tert-Butyl N-tert-butoxycarbonyl-N-[3-[[2-chloro-5-[[(1R,3R)-2,2-dichloro-3-[3-fluoro-5-(trifluoromethyl)phenyl]cyclopropanecarbonyl]amino]benzoyl]amino]-2,6-difluoro-phenyl]carbamate]	50 to 100%	50 to 100%
O=C(CC(F)(F)F)Nc1c(F)ccc(NC(=O)c2cc(NC(=O)[C@H]3[C@H](c4ccc(F)c(C(F)(F)F)c4)C3(Cl)Cl)ccc2Cl)c1F [F1683, 2-Chloro-5-((1R,3R)-2,2-dichloro-3-(4-fluoro-3-(trifluoromethyl)phenyl)cyclopropane-1-carboxamido)-N-(2,4-difluoro-3-(3,3,3-trifluoropropanamido)phenyl)benzamide]	50 to 100%	50 to 100%
O=C(Nc1ccc(F)cc1F)c1cc(NC(=O)[C@H]2[C@H](c3cc(F)c(F)c(F)c3)C2(Cl)Cl)ccc1Cl [F1693, 2-Chloro-5-((1R,3R)-2,2-dichloro-3-(3,4,5-trifluorophenyl)cyclopropane-1-carboxamido)-N-(2,4-difluorophenyl)benzamide]	50 to 100%	50 to 100%
